Laboratory results taken from PubChem BioAssay (NCI).
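The compound was tested at five concentrations on cells cultured in 96-well plates, with a 48-hour exposure period. Definition used: TGI = concentration required for complete inhibition of growth.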

How the values were obtained:
Test in all cases: inhibition of tumour cell growth, NCI panel, 48 h
CAKI-1 renal = test system: CAKI-1 renal
EKVX NSCLC = test system: EKVX NSCLC
HCT-15 colon = test system: HCT-15 colon
HOP-62 NSCLC = test system: HOP-62 NSCLC
MALME-3M melanoma = test system: MALME-3M melanoma
MOLT-4 leukemia = test system: MOLT-4 leukemia
NCI-H226 lung = test system: NCI-H226 lung
NCI-H522 lung = test system: NCI-H522 lung
OVCAR-5 ovarian = test system: OVCAR-5 ovarian
SF-295 CNS = test system: SF-295 CNS
SK-MEL-5 melanoma = test system: SK-MEL-5 melanoma
SK-OV-3 ovarian = test system: SK-OV-3 ovarian
SNB-75 CNS = test system: SNB-75 CNS

| SMILES | TGI (CAKI-1 renal) | TGI (EKVX NSCLC) | TGI (HCT-15 colon) | TGI (HOP-62 NSCLC) | TGI (MALME-3M melanoma) | TGI (MOLT-4 leukemia) | TGI (NCI-H226 lung) | TGI (NCI-H522 lung) | TGI (OVCAR-5 ovarian) | TGI (SF-295 CNS) | TGI (SK-MEL-5 melanoma) | TGI (SK-OV-3 ovarian) | TGI (SNB-75 CNS) |
| --- | --- | --- | --- | --- | --- | --- | --- | --- | --- | --- | --- | --- | --- |
| COc1cc2c(cc1OCc1ccccc1)CNCC2 | > 100 µM | > 100 µM | > 100 µM | > 100 µM | > 100 µM | > 100 µM | > 100 µM | > 100 µM | > 100 µM | > 100 µM | > 100 µM | > 100 µM | > 100 µM |
| Cc1cccc(NC(=O)/C=C/c2ccc(N(CCC#N)CCC#N)cc2C)c1 | > 100 µM | > 100 µM | > 100 µM | > 100 µM | > 100 µM | > 100 µM | > 100 µM | > 100 µM | > 100 µM | > 100 µM | > 100 µM | > 100 µM | > 100 µM |
| COc1ccc2c(c1C)C(=O)C(O)(CC=C(C)C)O2 (stereo not given) | > 100 µM | > 100 µM | > 100 µM | > 100 µM | > 100 µM | > 100 µM | > 100 µM | > 100 µM | > 100 µM | > 100 µM | > 100 µM | > 100 µM | > 100 µM |
| O=C(NCCCNC(=O)c1ccc2c(O)c(O)ccc2c1)c1ccc2c(O)c(O)ccc2c1 | > 100 µM | > 79.9 µM | > 72.5 µM | 48.1 µM | > 100 µM | 52.3 µM | > 100 µM | 48.5 µM | > 74.4 µM | 38.2 µM | 46.9 µM | > 100 µM | 42.5 µM |
| COc1cc(/C=C2\C[C@H]3[C@@H]4CC=C5C[C@@H](O)CC[C@]5(C)[C@H]4CC[C@]3(C)C2=O)cc(OC)c1OC | > 100 µM | > 100 µM | > 100 µM | > 100 µM | > 100 µM | 68.4 µM | > 100 µM | 67.8 µM | > 100 µM | 52.7 µM | 31.9 µM | > 100 µM | 96.3 µM |
